In ChEMBL document CHEMBL1121645, “Pyrimidine acyclic nucleosides, 1-[(2-Hydroxyethoxy)methyl]pyrimidines as candidate antivirals” (J Med Chem, 1981):

Tests used:
[1] = test system: Thymidine kinase (Human alphaherpesvirus 1); assay: Compound was evaluated for the inhibitory activity against HSV-1 encoded thymidine kinase at 300 uM; 45-56% inhibition
[2] = test system: Thymidine kinase (Human alphaherpesvirus 1); assay: Compound was evaluated for the inhibitory activity against HSV-1 encoded thymidine kinase at 300 uM

Row | SMILES | inhibition [1] | inhibition [2]
1 | O=C(OCCOCn1ccc(=O)[nH]c1=O)c1ccccc1 | 45% | 
2 | O=c1[nH]c(=O)n(COCCO)cc1C(F)(F)F |  | 56%
3 | O=c1[nH]c(=O)n(COCCO)cc1I |  | 56%
